Laboratory results as given in PubChem BioAssay (NCI).
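Assay format: 96-well plates, 48-hour exposure. Here, GI50 denotes the concentration required for 50% inhibition of growth. TGI is the concentration that stops growth completely.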

Columns and labels:
Assay in all cases: NCI-60 cell line screen, 48 h
[1] = test system: SK-OV-3 ovarian
[2] = test system: UACC-62 melanoma
[3] = test system: SK-MEL-2 melanoma
[4] = test system: SNB-19 CNS
[5] = test system: KM12 colon
[6] = test system: HT29 colon
[7] = test system: EKVX NSCLC
[8] = test system: MDA-MB-435
[9] = test system: SF-539 CNS
[10] = test system: PC-3 prostate
[11] = test system: HS 578T breast
[12] = test system: RPMI-8226 leukemia
[13] = test system: UACC-257 melanoma
[14] = test system: OVCAR-8 ovarian
[15] = test system: COLO 205 colon
[16] = test system: LOX IMVI melanoma
[17] = test system: T-47D breast
[18] = test system: NCI-H23 lung
[19] = test system: MDA-MB-231 breast
[20] = test system: M14 melanoma
[21] = test system: IGROV1 ovarian
[22] = test system: SW-620 colon
[23] = test system: MALME-3M melanoma
[24] = test system: HCT-116 colon
[25] = test system: SK-MEL-28 melanoma
[26] = test system: CCRF-CEM leukemia
[27] = test system: NCI-H460 lung
[28] = test system: NCI-H522 lung
[29] = test system: SK-MEL-5 melanoma
[30] = test system: 786-0 renal
[31] = test system: U251 CNS
[32] = test system: OVCAR-3 ovarian
[33] = test system: DU-145 prostate
[34] = test system: SF-268 CNS
[35] = test system: RXF 393 renal
[36] = test system: HOP-62 NSCLC
[37] = test system: SF-295 CNS
[38] = test system: NCI-H226 lung
[39] = test system: SNB-75 CNS
[40] = test system: UO-31 renal
[41] = test system: MCF7 breast
[42] = test system: HCT-15 colon
[43] = test system: HOP-92 NSCLC
[44] = test system: SN12C renal
[45] = test system: BT-549 breast
[46] = test system: A549 NSCLC
[47] = test system: OVCAR-4 ovarian
[48] = test system: OVCAR-5 ovarian
[49] = test system: TK-10 renal
[50] = test system: HCC-2998 colon
[51] = test system: NCI/ADR-RES ovarian
[52] = test system: ACHN renal
[53] = test system: CAKI-1 renal
[54] = test system: A498 renal

Oc1c(I)cc(I)cc1CNCCN(Cc1ccccn1)Cc1ccccn1
GI50 [1]: 1210 nM | TGI [1]: 2580 nM | GI50 [2]: 1490 nM | TGI [2]: 4210 nM | GI50 [3]: 1740 nM | TGI [3]: 3800 nM | GI50 [4]: 693 nM | TGI [4]: 2110 nM | GI50 [5]: 1200 nM | TGI [5]: 2670 nM | GI50 [6]: 2300 nM | TGI [6]: 5960 nM | GI50 [7]: 911 nM | TGI [7]: 2110 nM | GI50 [8]: 1550 nM | TGI [8]: 3150 nM | GI50 [9]: 1140 nM | TGI [9]: 2420 nM | GI50 [10]: 1160 nM | TGI [10]: 2920 nM | GI50 [11]: 2120 nM | TGI [11]: 7430 nM | GI50 [12]: 1660 nM | TGI [12]: 7640 nM | GI50 [13]: 1890 nM | TGI [13]: 4250 nM | GI50 [14]: 2140 nM | TGI [14]: 8160 nM | GI50 [15]: 1490 nM | TGI [15]: 3680 nM | GI50 [16]: 1140 nM | TGI [16]: 2450 nM | GI50 [17]: 1460 nM | TGI [17]: 2830 nM | GI50 [18]: 1760 nM | TGI [18]: 4660 nM | GI50 [19]: 1150 nM | TGI [19]: 3160 nM | GI50 [20]: 1450 nM | TGI [20]: 3000 nM | GI50 [21]: 830 nM | TGI [21]: 2980 nM | GI50 [22]: 1650 nM | TGI [22]: 3470 nM | GI50 [23]: 1530 nM | TGI [23]: 3330 nM | GI50 [24]: 1280 nM | TGI [24]: 2610 nM | GI50 [25]: 1410 nM | TGI [25]: 3640 nM | GI50 [26]: 1870 nM | TGI [26]: 21100 nM | GI50 [27]: 804 nM | TGI [27]: 2480 nM | GI50 [28]: 1370 nM | TGI [28]: 3340 nM | GI50 [29]: 1150 nM | TGI [29]: 2450 nM | GI50 [30]: 1440 nM | TGI [30]: 2750 nM | GI50 [31]: 827 nM | TGI [31]: 2890 nM | GI50 [32]: 1320 nM | TGI [32]: 2730 nM | GI50 [33]: 1070 nM | TGI [33]: 2270 nM | GI50 [34]: 1010 nM | TGI [34]: 2400 nM | GI50 [35]: 1500 nM | TGI [35]: 2990 nM | GI50 [36]: 859 nM | TGI [36]: 2670 nM | GI50 [37]: 1230 nM | TGI [37]: 2630 nM | GI50 [38]: 1070 nM | TGI [38]: 2750 nM | GI50 [39]: 544 nM | TGI [39]: 2060 nM | GI50 [40]: 779 nM | TGI [40]: 2070 nM | GI50 [41]: 1210 nM | TGI [41]: 3190 nM | GI50 [42]: 1180 nM | TGI [42]: 4170 nM | GI50 [43]: 1540 nM | TGI [43]: 3070 nM | GI50 [44]: 667 nM | TGI [44]: 2370 nM | GI50 [45]: 1240 nM | TGI [45]: 2520 nM | GI50 [46]: 1240 nM | TGI [46]: 2910 nM | GI50 [47]: 896 nM | TGI [47]: 2230 nM | GI50 [48]: 1420 nM | TGI [48]: 4180 nM | GI50 [49]: 1260 nM | TGI [49]: 2540 nM | GI50 [50]: 1470 nM | TGI [50]: 2950 nM | GI50 [51]: 1800 nM | TGI [51]: 4790 nM | GI50 [52]: 1130 nM | TGI [52]: 2340 nM | GI50 [53]: 1320 nM | TGI [53]: 2680 nM | GI50 [54]: 1670 nM | TGI [54]: 3040 nM
